Consider two compounds from patent US12376614B2, “Method for producing hop processed product” (SUNTORY HOLDINGS LIMITED, priority 2016, dated 2025).

The test system of experiment [1] is 3T3-L1 cells. The experiment is described as follows: Anti-adipocyte differentiation in 3T3-L1 cells (Oil Red O, WST-8 viability). Particulars: positive control, commercially available reagent, 50 μM. In kind it is cell-based. How it is done: [formula] formula (1) <Anti-Adipocyte Differentiation> [Reagents] • Dulbecco's modified eagle medium (DMEM): 10% FBS (fetal bovine sera) and 1% penicillin/streptomycin were added thereto. • TrypLE™ Select (1×) • IBMX: prepared to have a concentration of 0.5 mM with DMSO. • DEX: prepared to have a concentration of 1 μM with DMSO. • insulin solution human • WST-8: upon use, diluted with the DMEM medium to give a 2% WST-8. • Oil Red O: prepared to have a concentration of 5 mg/mL with isoPrOH, and upon use, diluted with pure water to give a 60% Oil Red O. [Method] • Day 1: 3T3-L1 Cells were previously cultured in a 10 cm dish to a state of 70 to 80% confluent. […] One-hundred microliters of the medium was transferred to a fresh 96-well plate, and the absorbance at 450 nm was measured with a microplate reader. Using those cells, a cell viability (%) was calculated as a relative value to the control. […] The 96-well plate was dried, 50 μL of 100% isoPrOH was added thereto, a mixture was allowed to stand at room temperature for 10 minutes, and the absorbance at 520 nm was then measured. Using those cells, an adipocyte differentiation (%) was calculated as a relative value to the control.

Experiment [2] is described as follows: Antioxidant activity (DPPH radical scavenging rate). In kind it is biochemical. Particulars: positive control, commercially available reagent, 12.5 μM. (In general: DPPH is a stable violet radical that fades when it is reduced.)
Description: Each sample dissolved in DMSO was dissolved in a 50 v/v % EtOH, so as to prepare a sample solution having a concentration of 25, 50, and 100 μg/mL, and dispensed in each well of a 96-well plate in an amount of 100 μL each. Thereto was added 100 μL each of a DPPH solution dissolved in EtOH so as to have a concentration of 0.1 mM, and the mixture was stirred with vortex (final concentration: 12.5, 25, or 50 μg/mL). Next, the plate was made light-resistant with an aluminum foil, and allowed to stand at room temperature (25° C.) for 30 minutes, and the absorbance at 517 nm was then measured (n=3). Using the absorbance obtained, the DPPH radical scavenging rate (%) was calculated according to the following formula (1). Here, as for the blank, the absorbance was measured in the same manner as the sample solutions except that a 50 v/v % EtOH containing 0.2% DMSO was used.
The 3T3-L1 cells were detached with TrypLE™ Select, and diluted with a DMEM medium to a concentration of 1.0×10^5 cells/mL, 100 μL each of a cell suspension was then dispensed into a 96-well plate, and the cells were cultured at 37° C. under 5% CO2. • Day 3: Each sample was prepared using a differentiation and induction medium (0.1% IBMX, 0.01% DEX). […] One-hundred microliters of the medium was transferred to a fresh 96-well plate, and the absorbance at 450 nm was measured with a microplate reader. […]

Compound `O=c1c(O)c(-c2ccc(O)c(O)c2)oc2cc(O)cc(O)c12` [Quercetin] had an anti-adipocyte differentiation in experiment [1] of 50%.
The compound `O=C1O[C@H]([C@@H](O)CO)C(O)=C1O` [Vitamin C] had an antioxidant activity in experiment [2] of 70%.
